Patent US20250275981A1, “HOMOHARRINGTONINE AND PACLITAXEL COMBINATION FOR THE TREATMENT OF BREAST CANCER” (priority 2022, published 2025)
Where two headings read alike, the source gives them in different places.

Columns and labels:
HCC1806 cells = assay: cells; assay type: cell-based
Excerpt: (§1) Significance was defined as p<0.05.

BT549 = assay: Cell viability drug titration (EC50), 4 days of drug treatment; assay type: cell-based; conditions: Homo sapiens, BT-549, 96 h
Excerpt: as §1

HCC1395 = assay: as above; assay type: cell-based; conditions: Homo sapiens
Excerpt: as §1

HCC1428 + HA-CREB3L1 = assay: as above; assay type: cell-based; conditions: Homo sapiens
Excerpt: as §1

HCC1428 = assay: as above; assay type: cell-based; conditions: for drug sensitivity of HCC1428 as compared to the corresponding CREB3L1-expressing cells: HCC1428 vs HCC1428 + HA-CREB3L1; for EC50: Homo sapiens
Excerpt: as §1

HCC1806+HA-CREB3L1 cells = assay: as above; assay type: cell-based; conditions: Homo sapiens, 96 h, single agent
Excerpt: as §1

HCC38 = assay: as above; assay type: cell-based; conditions: Homo sapiens
Excerpt: as §1

Hs578T = assay: as above; assay type: cell-based; conditions: Homo sapiens, Hs-578T, 96 h
Excerpt: as §1

MCF7 = assay: as above; assay type: cell-based; conditions: Homo sapiens
Excerpt: as §1

MDA-MB-157 = assay: as above; assay type: cell-based; conditions: Homo sapiens, MDA-MB-157, 96 h
Excerpt: as §1

MDA-MB-436 = assay: as above; assay type: cell-based; conditions: Homo sapiens
Excerpt: as §1

T47D + HA-CREB3L1 = assay: as above; assay type: cell-based; conditions: Homo sapiens, 96 h
Excerpt: as §1

T47D = assay: as above; assay type: cell-based; conditions: Homo sapiens, 96 h
Excerpt: as §1

ZR-75-1 = assay: as above; assay type: cell-based; conditions: Homo sapiens
Excerpt: as §1

MCF10A cells = test system: MCF10A cells
Experimental: Cells were authenticated by the supplier (http://www.ATCC.org) and cultured as recommended by ATCC for less than six months from the time of resuscitation. HCC1806, HCC1428 and T47D cells stably expressing triple hemagglutinin (HA)-tagged CREB3L1 (HA-CREB3L1) have been described and characterized previously.
Cells were allowed to attach and grow at 37° C. and 5% CO2. The following day the media was carefully removed from each well and replaced with drug-containing media in triplicate wells, again using the ASSIST PLUS. After 4 days of drug treatment cells were stained with Hoechst and ImageIT® Dead Green to quantify total and live cells as detailed below.
Images of each well of the 384-well plates were acquired using a Thermo Scientific® CellInsight® CX7 High Content Screening (HCS) Platform. Nine fields of view were captured using a 10×(0.4 NA) air objective lens. Images were analyzed using Thermo Scientific HCS Studio® 3 Cell Analysis Software using the Spot Detector bio-application (Cellomics®). Total cells were identified and counted by their Hoechst-stained nuclei at 386 nm (blue) channel 1 (Ch1) and dead cells were quantified from the ImageIT® Dead Green on the 485 nm wavelength (green) channel 2 (Ch2). […] The test well total live cell count was divided by the average of the corresponding solvent control total live cell count, giving the percentage cell viability (% viability). The mean±standard error of the mean (SEM) of the % viability of each set of triplicate wells was determined.
Drug titration experiments were carried out as described for the secondary drug screens, except a range of drug concentrations were tested. […] EC values were determined using PRISM software (GraphPad, v9.2.0) using non-linear curve fit. A student's t-test was used to determine statistically significant differences between the EC values for the two cell lines. Significance was defined as p<0.05.

[1] = test system: anti-apoptotic proteins, including MCL-1, BCL-2 and surviving; conditions: several TNBC cell lines; reference [21]; cited from earlier work
[2] = test system: MDA-MB-231 TNBC xenografts; conditions: cited from earlier work
TNBC = conditions: combined with docetaxel, reference [23]; cited from earlier work
[3] = Homo sapiens, HCC1806, 96 h, HCC1806 parental (CREB3L1-deficient TNBC), single agent, 4 days of drug treatment, read-out: EC50
[4] = BT549 parental (TNBC), single agent, 4 days, read-out: EC50
[5] = 96 h, HCC1395 parental (TNBC), single agent, 4 days, read-out: EC50
[6] = 96 h, HCC1428 + HA-CREB3L1, single agent, 4 days, read-out: EC50
[7] = 96 h, HCC1428 parental (Luminal A, ER+), single agent, 4 days, read-out: EC50
[8] = 96 h, HCC38 parental (TNBC), single agent, 4 days, read-out: EC50
[9] = Hs578T parental (TNBC), single agent, 4 days, read-out: EC50
[10] = 96 h, MCF7 parental (Luminal A, ER+), single agent, 4 days, read-out: EC50
[11] = 96 h, MDA-MB-436 parental (TNBC), single agent, 4 days, read-out: EC50
[12] = T47D + HA-CREB3L1, single agent, 4 days, read-out: EC50
[13] = T47D parental (Luminal A, ER+), single agent, 4 days, read-out: EC50
[14] = 96 h, ZR-75-1 parental (Luminal A, ER+), single agent, 4 days, read-out: EC50

Row | Compound | EC50 (HCC1806 cells; [3]) | cytotoxicity towards CREB3L1-deficient HCC1806 as compared to HCC1806+HA-CREB3L1 cells (HCC1806 cells; drug titration, 4 days, FIG. 2) | EC50 (BT549; [4]) | EC50 (HCC1395; [5]) | EC50 (HCC1428 + HA-CREB3L1; [6]) | drug sensitivity of HCC1428 as compared to the corresponding CREB3L1-expressing cells (HCC1428) | EC50 (HCC1428; [7]) | EC50 (HCC1806+HA-CREB3L1 cells) | EC50 (HCC38; [8]) | EC50 (Hs578T; [9]) | EC50 (MCF7; [10]) | EC50 (MDA-MB-436; [11]) | EC50 (T47D + HA-CREB3L1; [12]) | EC50 (T47D; [13]) | EC50 (ZR-75-1; [14]) | cytotoxicity towards non-tumorigenic MCF10A cells as compared to HCC1806 cells (MCF10A cells) | also measured
1 | Nc1nc(Cl)nc2c1ncn2[C@H]1C[C@H](O)[C@@H](CO)O1 [Cladribine, cladribine] | 92 nM | showed a preference for killing the more metastatic CREB3L1-deficient HCC1806 TNBC cells | 178 ± 84 nM | 10100 ± 1200 nM | 2200 ± 1700 nM | increased drug sensitivity | 740 ± 330 nM | 182 ± 60 nM | 65 ± 56 nM | 5700 ± 1200 nM | 3400 ± 2100 nM | 660 ± 180 nM | 1800 ± 1300 nM | 9600 ± 1800 nM | 750 ± 350 nM | Little or no cytotoxicity | EC50 (MDA-MB-157; read-out: EC50): 5000 ± 4300 nM
2 | COc1cccc2c1C(=O)c1c(O)c3c(c(O)c1C2=O)C[C@@](O)(C(=O)CO)C[C@@H]3O[C@H]1C[C@H](N)[C@H](O)[C@H](C)O1 [Doxorubicin, doxorubicin] | 13 ± 4 nM |  |  |  |  |  |  | 17 ± 6 nM |  |  |  |  |  |  |  |  | EC50 (HCC1806 cells; HCC1806 parental (CREB3L1-deficient TNBC), single agent, 4 days of drug treatment, read-out: EC50): 13.2 nM
3 | COC(=O)C[C@](O)(CCCC(C)(C)O)C(=O)O[C@@H]1C(OC)=C[C@]23CCCN2CCc2cc4c(cc2[C@H]13)OCO4 [Homoharringtonine, 1-((1S,3aR,14bS)-2-Methoxy-1,5,6,8,9,14b-hexahydro-4H-cyclopenta(a)(1,3)dioxolo(4,5-h)pyrrolo (2,1-b)(3)benzazepin-1-yl) 4-methyl (2R)-2-hydroxy-2-(4-hydroxy-4-methylpentyl)butanedioate] | 29 nM | showed a preference for killing the more metastatic CREB3L1-deficient HCC1806 TNBC cells | 89 ± 10 nM | 104 ± 31 nM | 10 ± 3 nM | the opposite was true | 9 ± 3 nM | 42 ± 7 nM | 58 ± 10 nM | 42 ± 24 nM | 18 ± 9 nM | 33 ± 36 nM | 88 ± 55 nM | 400 ± 180 nM | 117 ± 35 nM | similar | EC50 (MDA-MB-157; read-out: EC50): 7.5 ± 1.2 nM; expression of anti-apoptotic proteins, including MCL-1, BCL-2 and surviving [1]: rapidly reduce the expression; tumor growth ([2]; MDA-MB-231 TNBC xenografts, mice, reference [21]): reduced tumor growth; general toxicity for the mice ([2]; mouse, in vivo): without general toxicity
4 | CC(=O)O[C@H]1C[C@H](O[C@H]2[C@@H](O)C[C@H](O[C@H]3[C@@H](O)C[C@H](O[C@H]4CC[C@@]5(C)[C@H](CC[C@@H]6[C@@H]5C[C@@H](O)[C@]5(C)[C@@H](C7=CC(=O)OC7)CC[C@]65O)C4)O[C@@H]3C)O[C@@H]2C)O[C@H](C)[C@H]1O[C@@H]1O[C@H](CO)[C@@H](O)[C@H](O)[C@H]1O [Lanatoside C, lanatoside C] |  |  |  |  |  | the opposite was true |  |  |  |  |  |  |  |  |  | very sensitive | cytotoxicity towards CREB3L1-deficient HCC1806 as compared to HCC1806+HA-CREB3L1 cells (HCC1806 cells): showed a preference for killing the more metastatic CREB3L1-deficient HCC1806 TNBC cells; EC50 (HCC1806 cells; Homo sapiens, HCC1806, 96 h): 143 nM; EC50 (BT549): 42 ± 12 nM; EC50 (HCC1395; HCC1395, 96 h): 510 ± 300 nM; EC50 (HCC1428 + HA-CREB3L1; HCC1428, 96 h): 32 ± 8 nM; EC50 (HCC1428; HCC1428, 96 h): 35 ± 8 nM; EC50 (HCC38; HCC38, 96 h): 300 ± 100 nM; EC50 (Hs578T): 1000 ± 800 nM; EC50 (MCF7; MCF7, 96 h): 450 ± 490 nM; EC50 (MDA-MB-157): 550 ± 240 nM; EC50 (MDA-MB-436; MDA-MB-436, 96 h): 460 ± 250 nM; EC50 (T47D + HA-CREB3L1; T47D): 89 ± 34 nM; EC50 (T47D; T47D): 500 ± 50 nM; EC50 (ZR-75-1; ZR-75-1, 96 h): 650 ± 510 nM
5 | CC(=O)O[C@H]1C(=O)[C@@]2(C)[C@H]([C@H](OC(=O)c3ccccc3)[C@]3(O)C[C@H](OC(=O)[C@H](O)[C@@H](NC(=O)c4ccccc4)c4ccccc4)C(C)=C1C3(C)C)[C@]1(OC(C)=O)CO[C@@H]1C[C@@H]2O [Paclitaxel, (2α,4α,5β,7β,10β,13α)-4, 10-Bis(acetyloxy)-13-{[(2R,3S)-3-(benzoylamino)-2-hydroxy-3-phenylpropanoyl]oxy}-1,7-dihydroxy-9-oxo-5,20-epoxytax-11-en-2-yl benzoate] | 1.2 ± 0.5 nM |  |  | 12 nM |  |  |  | 1.2 ± 0.4 nM | 2.4 nM | 7.4 nM |  |  |  |  |  |  | 
6 | CC(=O)c1c(C)c2cnc(Nc3ccc(N4CCNCC4)cn3)nc2n(C2CCCC2)c1=O [Palbociclib Isethionate, palbociclib isethionate] | 500 nM | showed a preference for killing the more metastatic CREB3L1-deficient HCC1806 TNBC cells | 12600 ± 4800 nM | 4000 ± 2000 nM | 160 ± 250 nM |  | 21 ± 15 nM | 1300 ± 490 nM | 210 ± 70 nM | 3200 ± 1400 nM | 4400 ± 3500 nM | 17000 ± 14000 nM | 7200 ± 9200 nM | 13000 ± 9800 nM | 710 ± 350 nM | very sensitive | 
7 | Cc1c(-c2c(-c3ccc(F)o3)sc3ncnc(O[C@H](Cc4ccccc4OCc4ccnn4CC(F)(F)F)C(=O)O)c23)ccc(OCCN2CCN(C)CC2)c1Cl [S63845] |  |  |  |  |  |  |  |  |  |  |  |  |  |  |  |  | synergistic activity with docetaxel (TNBC): synergistic activity
